Data: ChEMBL document CHEMBL1139433 (J Med Chem, 2004)
Square brackets hold non-standard residues; d marks the D form. Peptide text beside a SMILES is read from it. Phe(4-NH2) = Nc1ccc(C[C@H](N)C(=O)O)cc1

Target: T1, Angiotensin II receptor (AT-1) type-1 (Rattus norvegicus, UniProt P29089+P25095)
T1 sequence (P29089 whole entry): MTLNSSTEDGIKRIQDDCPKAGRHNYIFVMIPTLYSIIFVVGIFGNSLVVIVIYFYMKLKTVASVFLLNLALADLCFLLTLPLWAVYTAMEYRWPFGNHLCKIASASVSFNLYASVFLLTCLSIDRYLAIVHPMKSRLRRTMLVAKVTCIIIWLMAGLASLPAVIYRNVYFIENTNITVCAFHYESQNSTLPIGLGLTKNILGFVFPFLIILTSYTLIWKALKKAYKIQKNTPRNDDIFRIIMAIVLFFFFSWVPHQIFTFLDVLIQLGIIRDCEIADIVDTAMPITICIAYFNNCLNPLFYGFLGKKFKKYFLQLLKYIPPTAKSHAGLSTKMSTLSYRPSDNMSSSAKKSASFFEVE
T1 sequence (P25095 whole entry): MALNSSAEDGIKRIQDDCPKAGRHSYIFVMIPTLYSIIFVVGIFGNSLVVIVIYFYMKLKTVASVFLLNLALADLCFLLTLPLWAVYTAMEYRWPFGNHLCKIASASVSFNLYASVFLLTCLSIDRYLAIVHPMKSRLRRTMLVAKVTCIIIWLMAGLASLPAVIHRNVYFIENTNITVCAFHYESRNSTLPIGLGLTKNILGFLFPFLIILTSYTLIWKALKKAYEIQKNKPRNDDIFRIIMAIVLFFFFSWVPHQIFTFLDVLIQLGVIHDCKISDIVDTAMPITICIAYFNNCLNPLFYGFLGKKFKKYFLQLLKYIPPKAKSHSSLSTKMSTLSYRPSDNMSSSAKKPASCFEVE
Assay: Displacement of [125I]-Ang II from rat liver membrane angiotensin II type 1 (AT1) receptor

In the case of `CC[C@H](C)[C@H](NC(=O)[C@H](Cc1ccc(O)cc1)NC(=O)[C@@H](NC(=O)[C@H](CCCN=C(N)N)NC(=O)[C@@H](N)CC(=O)O)C(C)C)C(=O)N[C@@H](Cc1ccc(N)cc1)C(=O)N1CCC[C@H]1C(=O)N[C@@H](Cc1ccccc1)C(=O)O` (H-DRVYI[Phe(4-NH2)]PF-OH), the Ki is reported as > 10 µM.
